Experimental data from US10251889B2, “Substituted pyrazolo[1,5-a]pyrimidine compounds as Trk kinase inhibitors” (Array BioPharma, Inc., priority 2009, dated 2019).

These compounds were tested against Jak2 (human Jak2 kinase domain, amino acids 808-1132) (Homo sapiens (Human), UniProt O60674) (assay: Jak2 inhibition assay (Omnia kinase assay)). Settings: read-out: Jak2 Enzyme (% inhibition at 1000 nM), Table 1; 1000 nM test compound.
Chain of Jak2 (human Jak2 kinase domain, amino acids 808-1132) (O60674 808-1132): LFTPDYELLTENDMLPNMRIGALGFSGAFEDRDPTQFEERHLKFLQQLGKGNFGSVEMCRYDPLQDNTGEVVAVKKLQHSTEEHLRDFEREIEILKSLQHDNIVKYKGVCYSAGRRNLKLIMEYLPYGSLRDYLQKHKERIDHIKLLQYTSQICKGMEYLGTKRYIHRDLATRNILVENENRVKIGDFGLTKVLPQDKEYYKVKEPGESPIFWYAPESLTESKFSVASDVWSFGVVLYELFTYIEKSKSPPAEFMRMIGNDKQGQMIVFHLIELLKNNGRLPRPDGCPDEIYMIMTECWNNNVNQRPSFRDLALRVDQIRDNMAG
Format: biochemical
Procedure: The assays described in Examples C, D, E and F for the determination of JAK1, JAK2, JAK3 and Tyk2 kinase activity, respectively, utilized the Omnia® Kinase fluorescence peptide substrate-based technology (Invitrogen). […] The reactions were therefore read at excitation 360 nm and emission was measured at 485 nm every 50 seconds for 45 minutes using a PerkinElmer EnVision Multilabel Plate Reader.
The final buffer conditions for each of the JAK1, JAK2, JAK3 and Tyk2 assays were as follows: 25 mM HEPES, pH 7.4, 10 mM MgCl2, 0.01% Triton X-100 and 1 mM DTT.
Two-μL aliquots of these were transferred to a fresh plate for a ten-fold intermediate dilution with assay buffer. Five-μL aliquots of the diluted compounds were then transferred to 20-μL of assay mixtures described in Examples C, D, E and F for a final concentration of DMSO of 2%. […] For each plate, percent of control (POC) values were calculated for each well according to the following equation:
where Xmax=Average Uninhibited Controls • Xmin=Average Background IC50's were estimated from the POC's using a standard 4-parameter logistic model:
where A=Minimum Y (Bottom Asymptote) • B=Maximum Y (Top Asymptote) • C=EC50 • D=Slope Factor • X=Compound Concentration (nM) • Y=POC
The IC50 is defined as the concentration of inhibitor at which the POC equals 50 for the fitted curve.
Compounds of Formula I were screened for their ability to inhibit Jak2 using the general enzyme inhibition assay method, in which the assay mixture contained 500 μM ATP, 10 μM Omnia® Y7 peptide (Catalog # IVGN KNZ3071C, Invitrogen Corporation, Carlsbad, Calif.) and 4 nM Jak2 in a total volume of 20 μL. Human Jak2 kinase domain comprising amino acids 808-1132 was purchased from Invitrogen Corporation, Carlsbad, Calif. (catalog # IVGN PV4210).
In the case of `CONC(=O)c1cnn2ccc(N3CCC[C@@H]3c3cncc(F)c3)nc12` [Example 73, (R)-5-(2-(5-fluoropyridin-3-yl)pyrrolidin-1-yl)-N-methoxypyrazolo[1,5-a]pyrimidine-3-carboxamide], the inhibition at 1 µM is reported as 4.9%. `O=C(c1cnn2ccc(N3CCC[C@@H]3c3cc(F)ccc3F)nc12)N1CC[C@H](O)C1` [Example 18, (5-((R)-2-(2,5-difluorophenyl)pyrrolidin-1-yl)pyrazolo[1,5-a]pyrimidin-3-yl)((S)-3-hydroxypyrrolidin-1-yl)methanone] gave an inhibition at 1 µM of 2.8%. In the case of `O=C(NC1CC1)c1cnn2ccc(N3CCC[C@@H]3c3cccc(F)c3)nc12` [Example 37, (R)—N-cyclopropyl-5-(2-(3-fluorophenyl)pyrrolidin-1-yl)pyrazolo[1,5-a]pyrimidine-3-carboxamide], the inhibition at 1 µM is reported as 25%. With `Cc1ncc(F)cc1[C@H]1CCCN1c1ccn2ncc(C(=O)NC(C)(C)C)c2n1` [Example 183, (R)-N-tert-butyl-5-(2-(5-fluoro-2-methylpyridin-3-yl)pyrrolidin-1-yl)pyrazolo[1,5-a]pyrimidine-3-carboxamide] the inhibition at 1 µM was -0.8%. With `CC(C)(C#N)NC(=O)c1cnn2ccc(N3CCC[C@@H]3c3cc(F)ccc3F)nc12` [Example 38, (R)—N-(2-cyanopropan-2-yl)-5-(2-(2,5-difluorophenyl)pyrrolidin-1-yl)pyrazolo[1,5-a]pyrimidine-3-carboxamide] the inhibition at 1 µM was 18.2%. Compound `COc1ccc(F)cc1[C@H]1CCCN1c1ccn2ncc(C(=O)NC3CC3)c2n1` [Example 48, (R)—N-cyclopropyl-5-(2-(5-fluoro-2-methoxyphenyl)pyrrolidin-1-yl)pyrazolo[1,5-a]pyrimidine-3-carboxamide] has an inhibition at 1 µM of 72.7%. For `COc1ncc(F)cc1[C@H]1CCCN1c1ccn2ncc(C(=O)NC(C)(C)CF)c2n1` [Example 81, (R)-5-(2-(5-fluoro-2-methoxypyridin-3-yl)pyrrolidin-1-yl)-N-(1-fluoro-2-methylpropan-2-yl)pyrazolo[1,5-a]pyrimidine-3-carboxamide], the inhibition at 1 µM was 54.4%. Work on `O=C(NCCn1ccnc1)c1cnn2ccc(N3CCC[C@@H]3c3cc(F)ccc3F)nc12` [Example 28, (R)—N-(2-(1H-imidazol-1-yl)ethyl)-5-(2-(2,5-difluorophenyl)pyrrolidin-1-yl)pyrazolo[1,5-a]pyrimidine-3-carboxamide] yielded an inhibition at 1 µM of 5%. In the case of `CC(C)(CF)NC(=O)c1cnn2ccc(N3CCC[C@@H]3c3cncc(F)c3)nc12` [Example 71, (R)—N-(1-fluoro-2-methylpropan-2-yl)-5-(2-(5-fluoropyridin-3-yl)pyrrolidin-1-yl)pyrazolo[1,5-a]pyrimidine-3-carboxamide], the inhibition at 1 µM is reported as 6.2%. Compound `Cc1ncc(F)cc1[C@H]1CCCN1c1ccn2ncc(C(=O)NC[C@@H](C)O)c2n1` [Example 189, (R)-5-(2-(5-fluoro-2-methylpyridin-3-yl)pyrrolidin-1-yl)-N-((R)-2-hydroxypropyl)pyrazolo[1,5-a]pyrimidine-3-carboxamide] has an inhibition at 1 µM of 4.6%. `COc1ncc(F)cc1[C@H]1CCCN1c1ccn2ncc(C(=O)Nc3ccc(=O)[nH]c3)c2n1` [Example 161, (R)-5-(2-(5-fluoro-2-methoxypyridin-3-yl)pyrrolidin-1-yl)-N-(6-oxo-1,6-dihydropyridin-3-yl)pyrazolo[1,5-a]pyrimidine-3-carboxamide] was tested, and the inhibition at 1 µM was 27.4%. `O=C(Nc1ccccn1)c1cnn2ccc(N3CCC[C@@H]3c3cc(F)ccc3F)nc12` [Example 2, (R)-5-(2-(2,5-difluorophenyl)pyrrolidin-1-yl)-N-(pyridin-2-yl)pyrazolo[1,5-a]pyrimidine-3-carboxamide] was tested, and the inhibition at 1 µM was 19.1%. With `CS(=O)(=O)NCCNC(=O)c1cnn2ccc(N3CCC[C@@H]3c3cc(F)ccc3F)nc12` [Example 46, (R)-5-(2-(2,5-difluorophenyl)pyrrolidin-1-yl)-N-(2-(methylsulfonamido)ethyl)pyrazolo[1,5-a]pyrimidine-3-carboxamide] the inhibition at 1 µM was 13.8%. With `CC(C)NC(=O)c1cnn2ccc(N3CCC[C@@H]3c3cc(F)cn(C)c3=O)nc12` [Example 227, (R)-5-(2-(5-fluoro-1-methyl-2-oxo-1,2-dihydropyridin-3-yl)pyrrolidin-1-yl)-N-isopropylpyrazolo[1,5-a]pyrimidine-3-carboxamide] the inhibition at 1 µM was 62.8%. `Cn1cc(F)cc([C@H]2CCCN2c2ccn3ncc(C(=O)Nc4ccc(F)cn4)c3n2)c1=O` [Example 239, (R)-5-(2-(5-fluoro-1-methyl-2-oxo-1,2-dihydropyridin-3-yl)pyrrolidin-1-yl)-N-(5-fluoropyridin-2-yl)pyrazolo[1,5-a]pyrimidine-3-carboxamide] gave an inhibition at 1 µM of 15.5%. `NCCCNC(=O)c1cnn2ccc(N3CCC[C@@H]3c3cc(F)c[nH]c3=O)nc12` [Example 142, (R)—N-(3-aminopropyl)-5-(2-(5-fluoro-2-oxo-1,2-dihydropyridin-3-yl)pyrrolidin-1-yl)pyrazolo[1,5-a]pyrimidine-3-carboxamide] was tested, and the inhibition at 1 µM was -0.9%. With `CC[C@@H](CO)NC(=O)c1cnn2ccc(N3CCC[C@@H]3c3cc(F)ccc3F)nc12` [Example 178, 5-((R)-2-(2,5-difluorophenyl)pyrrolidin-1-yl)-N-((S)-1-hydroxybutan-2-yl)pyrazolo[1,5-a]pyrimidine-3-carboxamide] the inhibition at 1 µM was 16.9%. `CC(C)[C@H](CO)NC(=O)c1cnn2ccc(N3CCC[C@@H]3c3cncc(F)c3)nc12` [Example 122, 5-((R)-2-(5-fluoropyridin-3-yl)pyrrolidin-1-yl)-N-((R)-1-hydroxy-3-methylbutan-2-yl)pyrazolo[1,5-a]pyrimidine-3-carboxamide] was tested, and the inhibition at 1 µM was 7.4%. With `O=C(NC1CCC1)c1cnn2ccc(N3CCC[C@@H]3c3cncc(F)c3)nc12` [Example 101, (R)-N-cyclobutyl-5-(2-(5-fluoropyridin-3-yl)pyrrolidin-1-yl)pyrazolo[1,5-a]pyrimidine-3-carboxamide] the inhibition at 1 µM was 26.2%. Compound `O=C(c1cnn2ccc(N3CCC[C@@H]3c3cncc(F)c3)nc12)N1CCC1` [Example 126, (R)-azetidin-1-yl(5-(2-(5-fluoropyridin-3-yl)pyrrolidin-1-yl)pyrazolo[1,5-a]pyrimidin-3-yl)methanone] has an inhibition at 1 µM of -1%. For `Cc1ncc(F)cc1[C@H]1CCCN1c1ccn2ncc(C(=O)N[C@H]3CN4CCC3CC4)c2n1` [Example 198, 5-((R)-2-(5-fluoro-2-methylpyridin-3-yl)pyrrolidin-1-yl)-N-((R)-quinuclidin-3-yl)pyrazolo[1,5-a]pyrimidine-3-carboxamide], the inhibition at 1 µM was 1.6%. Compound `O=C(N[C@@H]1CCCC[C@H]1O)c1cnn2ccc(N3CCC[C@@H]3c3cncc(F)c3)nc12` [Example 136, 5-((R)-2-(5-fluoropyridin-3-yl)pyrrolidin-1-yl)-N-((1R,2R)-2-hydroxycyclohexyl)pyrazolo[1,5-a]pyrimidine-3-carboxamide] has an inhibition at 1 µM of 4.8%. Work on `Cn1ccc(NC(=O)c2cnn3ccc(N4CCC[C@@H]4c4cc(F)ccc4F)nc23)n1` [Example 6, (R)-5-(2-(2,5-difluorophenyl)pyrrolidin-1-yl)-N-(1-methyl-1H-pyrazol-3-yl)pyrazolo[1,5-a]pyrimidine-3-carboxamide] yielded an inhibition at 1 µM of 12.9%. Work on `O=C(NCC(F)CCl)c1cnn2ccc(N3CCC[C@@H]3c3cncc(F)c3)nc12` (stereo partly drawn) [Example 97, N-(3-chloro-2-fluoropropyl)-5-((R)-2-(5-fluoropyridin-3-yl)pyrrolidin-1-yl)pyrazolo[1,5-a]pyrimidine-3-carboxamide] yielded an inhibition at 1 µM of 6.8%. With `C[C@H](NC(=O)c1cnn2ccc(N3[C@H](CO)CC[C@@H]3c3cncc(F)c3)nc12)C(F)(F)F` [Example 213, 5-((2R,5S)-2-(5-fluoropyridin-3-yl)-5-(hydroxymethyl)pyrrolidin-1-yl)-N—((S)-1,1,1-trifluoropropan-2-yl)pyrazolo[1,5-a]pyrimidine-3-carboxamide] the inhibition at 1 µM was 21.9%. In the case of `C[C@@H](O)CNC(=O)c1cnn2ccc(N3CCC[C@@H]3c3cncc(F)c3)nc12` [Example 110, 5-((R)-2-(5-fluoropyridin-3-yl)pyrrolidin-1-yl)-N-((R)-2-hydroxypropyl)pyrazolo[1,5-a]pyrimidine-3-carboxamide], the inhibition at 1 µM is reported as -0.5%. `CC(C)(CO)CNC(=O)c1cnn2ccc(N3CCC[C@@H]3c3cncc(F)c3)nc12` [Example 125, (R)-5-(2-(5-fluoropyridin-3-yl)pyrrolidin-1-yl)-N-(3-hydroxy-2,2-dimethylpropyl)pyrazolo[1,5-a]pyrimidine-3-carboxamide] showed an inhibition at 1 µM of 6.1%. `CC(NC(=O)c1cnn2ccc(N3CCCC3c3cncc(F)c3)nc12)C1CC1` [Example 113, N-(1-cyclopropylethyl)-5-((R)-2-(5-fluoropyridin-3-yl)pyrrolidin-1-yl)pyrazolo[1,5-a]pyrimidine-3-carboxamide] gave an inhibition at 1 µM of 44.6%.
